Measured values reported in patent US11603355B2, “Charged ion channel blockers and methods for use” (Nocion Therapeutics, Inc., priority 2019, dated 2023).

Columns and labels:
NaV1.7 [1] = target: T1, NaV1.7 (Homo sapiens, UniProt Q15858); assay: Automated patch clamp (Qube 384), internal block of NaV1.7; type: cell-based; settings: IC50, compound in internal solution, HEK293 cells, read-out: Nav1.7 Intracellular Inhibition
T1 construct: expressed in transfected cells; host or cells: HEK293 (tetracycline-inducible)
Procedure: (§1) NaV1.7 was expressed in HEK293 cells upon induction with tetracycline. Cells were cultured in DMEM containing 10% dialyzed Fetal Bovine Serum (VWR, Radnor, Pa.), 1% Glutamax (VWR, Radnor, Pa.), 1% Penicillin-Streptomycin (VWR, Radnor, Pa.), 100 mg/L Hygromycin (Thermo Fisher Scientific, Waltham, Mass. and 5 mg/L Blasticidin (Alfa Aesar, Haverhill, Mass.). Cells were grown and maintained at 37° C. in a humidified environment containing 10% CO2 in air. Cells were detached from the culture flask for passage and harvested using 0.05% Trypsin-EDTA (Thermo Fisher Scientific, Waltham, Mass.). To induce NaV1.7, cells were induced with tetracycline (0.1-1 μg/mL, IBI Scientific, Peosta, Iowa) the day before recording.
Before experiments, cells were washed with DPBS (VWR, Radnor, Pa.), digested with Detachin (VWR Radnor, Pa.) and then triturated 10 times in CHO Serum-Free Media (VWR Radnor, Pa.) to resuspend the cells and to break apart cell aggregates. Cells were counted and the final concentration was set at 2-5 million cells per mL.
The intracellular solution contained the following: 140 mM CsF, 1 mM/5 mM EGTA/CsOH, 10 mM HEPES, 10 mM NaCl, adjusted to pH 7.3 with CsOH, and osmolality to 320 with OSM solution. The external solution contained the following: 145 mM NaCl, 4 mM KCl, 1 mM MgCl2, 2 mM CaCl2), 10 mM HEPES, 10 mM Glucose, adjusted to pH 7.4 with CsOH and osmolality to 305 with OSM solution. The OSM solution was a normal Ringer solution containing (in mM) NaCl 155, HEPES 10, sucrose, KCl 3.5, CaCl2) 1.5, MgCl2 1 adjusted to pH 7.4 with NaOH. All chemicals are from Sigma-Aldrich, St. Louis, Mo. In order to test the degree of internal block by test compounds, the compounds were dissolved in internal solution at the indicated test concentration. […] In order to test the degree of external block by test compounds the compounds were dissolved in external solution at the indicated test concentration.
Automated Patch Clamps were performed on Qube 384 (Sophion Bioscience, Woburn Mass.) with multihole Qchips at a temperature setting of 22 degrees. The whole cells configuration was formed with default Qube seal and break-in parameter. The membrane potential was held at −100 mV before the voltage protocol began. Two voltage protocols were followed.
Step 1: Cells were held at −100 mV with a depolarized pulse to −20 mV for 10 ms, the interval was set at 5 s. Currents were corrected by default leak subtraction from every pulse. The duration was set at 5 mins.
Step 2: Cells were held at −100 mV with a depolarized pulse to −20 mV for 10 ms. The frequency was 5 Hz. Currents were corrected by leak subtraction calculated before step 2. The duration was set at 4 mins.
After Step 2, the Qchip was removed from the recording chamber. The internal solution was changed with solutions containing test compounds. Qchips were held at −100 mV without pulsing after being replaced in the recording chamber. The total solution switching time was 8 minutes. After the internal solution exchange, Cells were recorded and step 2 for repeated for 10 minutes.
Data analysis was performed by Sophion Analyzer. Cells were filtered with minimum 50 MOhm seal resistance and minimum 5 nA starting current. The rundown of the currents was corrected with control cells (Non-Drug). The remaining was calculated by averaging last 3 points in the end of experiments. The base line was calculated as the average of last 3 points of Step 2.
IC50 curves were plotted with DR-plots/Hill function (a dose-response plot with a Hill fit).
Representative examples of the invention were tested for intracellular inhibition of NaV 1.7 in the automated patch clamp assay. Activity Range is reported as IC50: “++++” (<0.3 μM), “+++” (0.3-1 μM), “++” (1-3 μM) or “+” (3-10 μM).

[2] = PAMPA membrane permeability assay; type: in vitro ADME; settings: permeability coefficient, pH 7.4 buffer, GIT lipid, 4 hours incubation
Procedure: The PAMPA assay (pION, Inc., Woburn Mass.) was used to determine the ability of compounds of the invention to cross an artificial lipid membrane by passive diffusion. Test compounds were dissolved in DMSO (10 mM) and diluted 200-fold in buffer (pION Inc., pH 7.4) to provide 50 uM stock solutions. Buffer (150 μL) was added to a UV blank plate and stock solutions (150 μL) were transferred to a UV reference plate. The blank and reference spectrum were read using a spectrophotometer. Stock solutions (200 μL) were added to the donor plate of the PAMPA sandwich plate and an accept plate painted with GIT lipid (pION Inc, 5) was placed on top. Buffer (200 μL) was added to the acceptor plate and the PAMPA sandwich plate was incubated for 4 hours. Aliquots (150 μL) from the acceptor plate were added to a UV plate and read as acceptor spectrum. Aliquots (150 μL) of the donor solutions were added to a UV analysis plate and read as donor spectrum. The permeability coefficient of test compounds was calculated using PAMPA Explorer™ software (version 3.5.0.4) based on the AUC of the reference plate, the donor plate, and the acceptor plate.
The PAMPA permeability results (10^−6 cm/s) of representative compounds are reported as “+” (<0.1 10^−6 cm/s), “++” (0.1-2.0 10^−6 cm/s), “+++” (2.0-10.010^−6 cm/s) or “++++” (>10.0 10^−6 cm/s).

NaV1.7 [3] = target: T1, NaV1.7; assay: Manual patch clamp, internal block of NaV1.7 current; type: cell-based; settings: compound in internal solution, HEK293 cells, read-out: Nav1.7 Intracellular Inhibition; for inhibition at 3 µM: % inhibition at 3 μM test concentration; for inhibition at 10 µM: % inhibition at 10 μM test concentration
Procedure: Representative compounds of the invention were synthesized according to the described methods and tested for the ability to inhibit voltage-gated sodium channels.
as §1, with “recording and plated onto 24-well plates. Cells were washed with DPBS (VWR, Radnor, Pa.), trypsinized and then triturated five times in 10 mL of growth media to break apart cell aggregates. For one 24-well plate, 2 mL of cell suspension was mixed with 23 mL of fresh growth media and 0.1-1 μg/mL tetracycline added. 1 ml of mixed media with cells was then added to each well of a 24-well plate, with a 12 mm coverslip already placed in the bottom of the well. Cells were then incubated in 37° C. and 10% CO2 overnight.” for “recording.”
The intracellular solution contained the following (in mM) CsCl 135, NaCl 10, EGTA 10, HEPES 10, MgCl2 2, adjusted to pH 7.2 with CsOH. The external solution was a normal Ringer solution containing (in mM) NaCl 155, HEPES 10, glucose 10, KCl 3.5, CaCl2 1.5, MgCl2 1 adjusted to pH 7.4 with NaOH. CsCl is from Alfa Aesar, Haverhill, Mass. All other chemicals are from Sigma-Aldrich, St. Louis, Mo. In order to test the degree of internal block by test compounds the compounds were dissolved in internal solution at the indicated test concentration. […] In order to test the degree of external block by test compounds the compounds were dissolved in external solution at the indicated test concentration.
18-24 hours after cells were induced with tetracycline, coverslips were placed into a chamber filled with Normal Ringer solution at room temperature and the chamber placed on a microscope. Pipettes were pulled from borosilicate glass on a P97 puller (Sutter Instrument, Novato, Calif.) and polished with a MF-830 Microforge (Narishige International USA, Inc., Amityville, N.Y.) to have a resistance of 1.5-2.5 MΩ when filled with CsCl internal solution at room temperature. Healthy cells (those that are round and translucent with no visible blemishes) were chosen for seal formation. A seal was formed between the pipette and the cell, and a brief pulse of suction was used to “break in” and establish the whole-cell configuration. The membrane potential was held at −100 mV before the voltage protocol began. Only cells with series resistance between 1.5-5 MΩ were retained for analysis. The voltage protocol was as follows: Cells were held at −100 mV for 12 ms followed by a hyperpolarizing step to −105 mV for 12 ms to monitor the leak. Cells were then stepped back to −100 mV for 40 ms. Cells were then depolarized to −20 mV for 10 ms and then returned to −100 mV for 26 ms.
Once the recording was started, the voltage protocol was run at 30 second intervals for 5 minutes to get a stable baseline. This was followed by four 30-second periods of 5 Hz stimulation of the same voltage protocol separated by 1 minute of rest which was then followed by 0.33 Hz stimulation after the last train. Currents were recorded using PatchMaster software with Heka EPC10 (HEKA Electronics, Lambrecht, Germany). Only cells with inward current amplitudes at −20 mV between 400 pA and 4 nA were accepted. In addition, cells having leak currents greater than 10% of their current amplitudes were discarded. […]

T1 sequence (Q15858 whole entry): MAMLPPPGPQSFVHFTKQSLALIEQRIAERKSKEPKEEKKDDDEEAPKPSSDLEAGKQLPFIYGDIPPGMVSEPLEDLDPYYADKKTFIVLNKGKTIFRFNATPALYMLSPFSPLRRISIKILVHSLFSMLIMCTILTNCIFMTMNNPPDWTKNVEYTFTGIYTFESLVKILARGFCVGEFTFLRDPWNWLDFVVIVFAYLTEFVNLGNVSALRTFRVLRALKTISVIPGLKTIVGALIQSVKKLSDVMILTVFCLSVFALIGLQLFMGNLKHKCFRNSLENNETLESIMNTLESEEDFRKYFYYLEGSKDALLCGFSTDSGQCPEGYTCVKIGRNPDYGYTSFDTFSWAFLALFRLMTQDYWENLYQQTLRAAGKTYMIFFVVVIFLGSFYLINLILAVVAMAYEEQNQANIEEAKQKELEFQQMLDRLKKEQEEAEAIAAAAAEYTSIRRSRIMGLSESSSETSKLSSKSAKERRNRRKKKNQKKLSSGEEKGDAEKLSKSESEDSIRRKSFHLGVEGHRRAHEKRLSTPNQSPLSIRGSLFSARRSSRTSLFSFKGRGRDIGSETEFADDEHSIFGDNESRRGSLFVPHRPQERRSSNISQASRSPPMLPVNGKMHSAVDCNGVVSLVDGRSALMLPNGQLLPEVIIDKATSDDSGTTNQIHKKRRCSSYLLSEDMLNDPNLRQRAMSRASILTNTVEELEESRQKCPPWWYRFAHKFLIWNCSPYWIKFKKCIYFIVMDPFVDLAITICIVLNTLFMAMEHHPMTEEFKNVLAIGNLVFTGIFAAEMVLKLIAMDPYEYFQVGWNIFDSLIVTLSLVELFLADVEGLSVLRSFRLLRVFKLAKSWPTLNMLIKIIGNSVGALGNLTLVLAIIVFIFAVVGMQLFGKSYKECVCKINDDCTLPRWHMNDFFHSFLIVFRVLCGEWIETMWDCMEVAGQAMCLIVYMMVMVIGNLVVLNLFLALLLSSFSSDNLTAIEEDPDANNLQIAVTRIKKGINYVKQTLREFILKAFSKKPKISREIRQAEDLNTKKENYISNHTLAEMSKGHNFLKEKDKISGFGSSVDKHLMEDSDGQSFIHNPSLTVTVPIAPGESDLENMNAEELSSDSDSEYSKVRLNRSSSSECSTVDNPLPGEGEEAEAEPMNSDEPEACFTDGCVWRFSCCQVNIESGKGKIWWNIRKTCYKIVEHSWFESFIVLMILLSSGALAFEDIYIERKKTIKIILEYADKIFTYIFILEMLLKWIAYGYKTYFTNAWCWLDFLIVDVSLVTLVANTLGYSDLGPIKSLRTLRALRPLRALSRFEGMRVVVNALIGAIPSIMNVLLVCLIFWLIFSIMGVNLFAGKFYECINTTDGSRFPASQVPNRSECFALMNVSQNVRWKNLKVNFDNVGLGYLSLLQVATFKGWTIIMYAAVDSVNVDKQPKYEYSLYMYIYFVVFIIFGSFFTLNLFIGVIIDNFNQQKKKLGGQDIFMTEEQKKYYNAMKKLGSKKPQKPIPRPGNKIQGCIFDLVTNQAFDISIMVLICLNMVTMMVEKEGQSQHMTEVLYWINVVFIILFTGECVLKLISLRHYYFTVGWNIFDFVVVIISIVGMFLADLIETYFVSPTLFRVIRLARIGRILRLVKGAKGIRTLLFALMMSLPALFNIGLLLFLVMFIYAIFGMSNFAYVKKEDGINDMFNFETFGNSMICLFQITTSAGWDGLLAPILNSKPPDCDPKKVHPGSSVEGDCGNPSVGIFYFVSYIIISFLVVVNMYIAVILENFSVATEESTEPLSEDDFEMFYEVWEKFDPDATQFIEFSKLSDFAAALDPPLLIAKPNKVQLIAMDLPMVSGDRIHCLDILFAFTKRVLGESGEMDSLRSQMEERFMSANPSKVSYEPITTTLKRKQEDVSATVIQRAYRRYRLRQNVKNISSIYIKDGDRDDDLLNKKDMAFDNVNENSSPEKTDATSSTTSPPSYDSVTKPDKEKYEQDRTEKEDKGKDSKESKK

| Structure (SMILES) | IC50 (NaV1.7 [1]) [µM] | PAMPA (10^−6 cm/s) [2] | inhibition at 3 µM (NaV1.7 [3]) [%] | inhibition at 10 µM (NaV1.7 [3]) [%] |
| --- | --- | --- | --- | --- |
| CCc1cccc(C[N+]2(C(CC)C(=O)Nc3c(C)cccc3C)CCCCC2)c1 (stereo not shown) [Compound 20] | 1 to 3 | – | – | – |
| CCC(C(=O)Nc1c(C)cccc1C)[N+]1(Cc2cccc(C#N)c2)CCCCC1 (stereo not shown) [Compound 14] | 0.3 to 1 | – | – | – |
| CCC(C(=O)Nc1c(C)cccc1C)[N+]1(Cc2cccc(Cl)c2)CCCCC1 (stereo not shown) [Compound 11] | 0.3 to 1 | – | – | – |
| Cc1cccc(C)c1NC(=O)C[N+]1(Cc2ccccc2)CCCCCC1 [Compound 3] | 0.3 to 1 | – | – | – |
| CCC(C(=O)Nc1c(C)cccc1C)[N+]1(Cc2cccc(F)c2)CCCCC1 (stereo not shown) [Compound 8A] | – | + (“+” (<0.1 10^−6 cm/s)) | – | 70 to 95 |
| CCc1ccc(C[N+]2(C(CC)C(=O)Nc3c(C)cccc3C)CCCCC2)cc1 (stereo not shown) [Compound 19A] | – | + (“+” (<0.1 10^−6 cm/s)) | – | 40 to 70 |
| CCc1cccc(C[N+]2(C(CC)C(=O)Nc3c(C)cccc3C)CCCCC2)c1 (stereo not shown) [Compound 20A] | – | + (“+” (<0.1 10^−6 cm/s)) | > 90 | > 95 |
| CCC(C(=O)Nc1c(C)cccc1C)[N+]1(Cc2ccccc2C#N)CCCCC1 (stereo not shown) [Compound 15A] | – | + (“+” (<0.1 10^−6 cm/s)) | – | > 95 |
| CCC(C(=O)Nc1c(C)cccc1C)[N+]1(Cc2ccccc2Cl)CCCCC1 (stereo not shown) [Compound 12A] | – | + (“+” (<0.1 10^−6 cm/s)) | – | > 95 |
| CCC(C(=O)Nc1c(C)cccc1C)[N+]1(Cc2cccc(OC)c2)CCCCC1 (stereo not shown) [Compound 23] | 0.3 to 1 | – | – | – |
| CCC(C(=O)Nc1c(C)cccc1C)[N+]1(Cc2ccccc2C)CCCCC1 (stereo not shown) [Compound 18A] | – | + (“+” (<0.1 10^−6 cm/s)) | – | 70 to 95 |

The next lines start with the values.

| IC50 (NaV1.7 [1]) [µM] | PAMPA (10^−6 cm/s) [2] | inhibition at 3 µM (NaV1.7 [3]) [%] | inhibition at 10 µM (NaV1.7 [3]) [%] | Structure (SMILES) |
| --- | --- | --- | --- | --- |
| 3 to 10 | + (“+” (<0.1 10^−6 cm/s)) | – | – | Cc1cccc(C)c1NC(=O)C[N+]1(Cc2ccccc2)CCCC(C(=O)NC2CCCCC2)C1.[Br-] (stereo not shown) [Compound 61A] |
| < 0.3 | – | – | – | CCC(C(=O)Nc1c(C)cccc1C)[N+]1(Cc2cccc(O)c2)CCCCC1 (stereo not shown) [Compound 29] |
| 1 to 3 | – | > 90 | > 95 | Cc1cccc(C)c1OCC[N+]1(Cc2ccccc2)CCCCCC1 [Compound 85A, 1-benzyl-1-(2-(2,6-dimethylphenoxy)ethyl) azepan-1-ium bromide] |
| 1 to 3 | + (“+” (<0.1 10^−6 cm/s)) | – | – | Cc1cccc(C)c1NC(=O)C[N+]1(Cc2ccccc2)CCCC(C(=O)OCC(C)C)C1.[Br-] (stereo not shown) [Compound 48A] |
| 1 to 3 | + (“+” (<0.1 10^−6 cm/s)) | – | – | Cc1cccc(C)c1NC(=O)C[N+]1(Cc2ccccc2)CCCC(C(=O)OC2CCCC2)C1.[Br-] (stereo not shown) [Compound 50A] |
| < 0.3 | – | – | – | CCC(C(=O)Nc1c(C)cccc1C)[N+]1(Cc2ccccc2)CCCCCC1 (stereo not shown) [Compound 30] |
| 0.3 to 1 | – | > 90 | – | Cc1cccc(C(F)(F)F)c1NC(=O)C[N+]1(Cc2ccccc2)CCCCCC1 [Compound 73A] |
| – | + (“+” (<0.1 10^−6 cm/s)) | < 40 | 70 to 95 | CCCCNC(=O)C1CCC[N+](CC(=O)Nc2c(C)cccc2C)(Cc2ccccc2)C1.[Br-] (stereo not shown) [Compound 59A] |
| 1 to 3 | – | – | – | CCCN(CCC)C(=O)C1CCC[N+](CC(=O)Nc2c(C)cccc2C)(Cc2ccccc2)C1 (stereo not shown) [Compound 67A] |
| – | + (“+” (<0.1 10^−6 cm/s)) | – | 70 to 95 | CCC(C(=O)Nc1c(C)cccc1C)[N+]1(Cc2ccsc2)CCCCC1 (stereo not shown) [Compound 26A] |
